Data published in paper PMC8795383, “Docking-guided rational engineering of a macrolide glycosyltransferase glycodiversifies epothilone B” (Communications Biology, 2022).
In brackets after ≈: the same amount, converted by molar mass. Read-outs that look alike come from different tables or passages of the source.

Legend:
[1] = system: liver carcinoma cell line HepG2; assay: MTT antitumor assay; format: cell-based, human
Excerpt: (§1) NDP-glucose (UDPG, ADPG, TDPG, and GDPG), UDP-N-acetylglucosamine (UDP-GlcNAc), UDP-galactose (UDP-Gal), and UDP-glucuronic acid (UDP-GlcA) were purchased from Sigma-Aldrich (St. Louis, MO, USA). UDP-GlcNAz, UDP-GalNAz, UDP-GlcNTFA, UDP-GalNTFA, UDP-GalNAc, UDP-GalA, CMP-Neu5Ac, GDP-Fuc and GDP-Man were kindly provided by Professor Junqiang Fang[59]–[63]. Epothilone B was purchased from Zhejiang Hisun Pharmaceutical Co., Ltd. The human liver carcinoma cell line HepG2 and human hepatocyte cell line HL-7702 were purchased from Gaining (Gaining Bio. Co., Ltd, Shanghai, China). The cells were cultivated in T-25 flasks in a Thermo Scientific CO2 incubator in a humidified environment at 37°C and 5% CO2. HepG2 cells were preserved in DMEM (Gibco, Thermo Fisher Scientific, Waltham, MA, USA), while HL-7702 cells were preserved in RPMI-1640 (Gibco, Thermo Fisher Scientific, Waltham, MA, USA). All cultures contained 10% fetal calf serum and 1% penicillin C/streptomycin. All chemicals and reagents are of analytical grade.
(§2) By using the MTT colorimetric assay, the antitumor and cytotoxicity of EpoB and its glucosides were tested against the liver carcinoma cell line HepG2 and hepatocyte cell line HL-7702, respectively. The cells were seeded in a 96-well microtiter plate, and the wall-attached cells were treated with varying concentrations of drugs by dilution from 300 μM to 0.1 μM for EpoB glycosides (dissolved in DMSO). After 48 h of incubation with the test compounds, the cultures were treated with MTT (2 mg/mL) solution, and the cells were incubated for an additional 4 h at 37°C until a purple precipitate was visible. The purple formazan crystals were dissolved in DMSO, and the absorbance of each sample was measured at 492 nm using a microplate reader. All MTT assay experiments were performed in triplicate, and IC50 values were calculated using GraphPad Prism software (Version 6.01)[26].

[2] = system: hepatocyte cell line HL-7702; assay: MTT cytotoxicity assay; format: cell-based, human
Excerpt: as §1, §2

HepG2 cells [3] = assay: Immunofluorescence confocal imaging of tubulin; format: cell-based, human; conditions: HepG2, 24 h
Method: Freshly trypsinized HepG2 cells (1 × 10^4−1 × 10^5) were seeded in a 12-well plate and cultivated for 24 h with DMEM (Gibco, Thermo Fisher Scientific, Waltham, MA, USA). Cells were treated with EpoB and 1a at different concentrations (50 nM, 500 nM, and 5 μM) according to the IC50 values for 24 h. The supernatants were removed, and the cells were washed with PBS buffer 2–3 times. The cells were further fixed with 4% paraformaldehyde for 1 h and then permeabilized with 0.2% Triton X-100 (diluted in PBS buffer) for 10 min. Next, the cells were blocked with bovine serum albumin (BSA) for 30 min and incubated with a primary antibody against β-tubulin (1:50, diluted in 2% BSA, β-tubulin Rabbit Monoclonal Antibody, Beyotime Biotechnology) for 1 h at room temperature. After that, the cells were treated with Alexa Fluor 488 goat anti-rabbit IgG (H + L) (secondary antibody, 1:500, diluted in 2% BSA, Beyotime Biotechnology) for another 1 h. The supernatants were removed, the cells were washed, and the nuclei were labeled with DAPI for 10 min. Images were collected using an Olympus BX81 fluorescence microscope system (Olympus, Tokyo, Japan) and a confocal microscope (UltraVIEW®VoX).

HepG2 cells [4] = assay: Cellular intake assay (HPLC-DAD); format: in vitro ADME, human; conditions: HepG2, 5 μM, 1 h
Method: HepG2 cells (1 × 10^5−1 × 10^6 cells/mL) were cultivated overnight at 37°C and then treated with 5 μM EpoB and glycosides for 1 h. After removing the supernatant, the cells were sequentially rinsed with PBS buffer, trypsinized, and then washed with DMEM. Next, the cells were suspended in acetone, disrupted by ultrasonication, and centrifuged at 12000 rpm for 10 min to remove the debris. The resulting supernatants were dried with nitrogen and then redissolved in 200 μL of methanol. Finally, the compounds were analyzed by HPLC-DAD at 249 nm. Each experiment was conducted in three replicates. The concentrations of EpoB and its glycosides (cellular intake) were calculated based on the linear fitting regression equations of the HPLC peak areas.

physchem = format: physicochemical; conditions: water
Method: The water solubility of EpoB and its glycosides was determined using the minimum shake-flask solubility method[26],[75].

BsGT-1 M296A = target: T1, BsGT-1 M296A (Bacillus subtilis, UniProt O34539, M296A); assay: Glycosylation kinetics, BsGT-1 M296A mutant; format: biochemical; conditions: EpoB converted to 1i, sugar donor 2i
T1 construct: made in house; host or cells: E. coli BL21 (DE3)
Method: (§3) Kinetic parameters of BsGT-1 and its mutants for the glycosylation of epothilone B were measured in a reaction mixture (50 μl) containing 20 μg/mL protein, saturated sugar donors, different concentrations of epothilone B, and 50 mM Tris–HCl buffer (50 mM Tris–HCl, pH 7.5, 10 mM MgCl2) at 37°C for 10 min in triplicate. The kinetic values were determined by fitting the Michaelis–Menten curve to the data using the nonlinear regression method (Supplementary Figs. 13–14).

BsGT-1 Q318C = target: T2, BsGT-1 Q318C (Bacillus subtilis, UniProt O34539, Q318C); assay: Glycosylation kinetics, BsGT-1 Q318C mutant; format: biochemical; conditions: EpoB converted to 1e, sugar donor 2e
T2 construct: made in house; host or cells: E. coli BL21 (DE3)
Method: as §3

BsGT-1 I62A = target: T3, BsGT-1 I62A (Bacillus subtilis, UniProt O34539, I62A); format: biochemical; conditions: EpoB converted to 1a, sugar donor 2a
T3 construct: made in house; host or cells: E. coli BL21 (DE3)
Method: as §3

BsGT-1 F231S = target: T4, BsGT-1 F231S (Bacillus subtilis, UniProt O34539, F231S); assay: Glycosylation kinetics, BsGT-1 F231S mutant; format: biochemical; conditions: EpoB converted to 1h, sugar donor 2h
T4 construct: made in house; host or cells: E. coli BL21 (DE3)
Method: as §3

[5] = read-out: IC50 HepG2, MTT, 48 h
[6] = read-out: IC50 HL-7702, MTT, 48 h
[7] = Homo sapiens, HepG2, 48 h, read-out: IC50 HepG2, MTT, 48 h
[8] = 25 °C, thermodynamic from solid, read-out: Solubility
[9] = Homo sapiens, L02, 48 h, read-out: IC50 HL-7702, MTT, 48 h

Row | SMILES | IC50 [1, 5] [µM] | IC50 [2, 6] [µM] | solubility (physchem; 25°C) [µg/mL] | IC50 [1, 7] [µM] | solubility (physchem; [8]) [µg/mL] | IC50 [2, 9] [µM] | also measured
1 | CC(=Cc1csc(C)n1)C1CC2OC2(C)CCCC(C)C(OC2OC(CO)C(O)C(O)C2O)C(C)C(=O)C(C)(C)C(O)CC(=O)O1 (stereo not drawn) [1a, EpoB 7-O-β-D glucoside] | 9.84 ± 0.57 | 27.6 ± 1.76 | 1550 ± 90 (≈ 2.31 mM) | – | – | – | penetration into tumor cells and interaction with tubulin (HepG2 cells [3]): could penetrate into the tumor cells and interact with tubulin; cellular intake rate, lower than that of EpoB (HepG2 cells [4]): 12 fold
2 | CC(=Cc1csc(C)n1)C1CC2OC2(C)CCCC(C)C(OC2OC(CO)C(O)C(OC3OC(CO)C(O)C(O)C3O)C2O)C(C)C(=O)C(C)(C)C(O)CC(=O)O1 [1b, EpoB 7-O-β-D-glucosyl-(1 → 3)-β-D glucoside] | – | – | – | > 100 | 86400 ± 1450 (≈ 104 mM) | – | –
3 | CC(=Cc1csc(C)n1)C1CC2OC2(C)CCCC(C)C(OC2OC(CO)C(O)C(O)C2OC2OC(CO)C(O)C(O)C2O)C(C)C(=O)C(C)(C)C(O)CC(=O)O1 [1c, EpoB 7-O-β-D-glucosyl-(1 → 2)-β-D glucoside] | – | – | – | 34.2 ± 4.16 | 83000 ± 1540 (≈ 99.8 mM) | 46.6 ± 0.48 | –
4 | C/C(=C\c1csc(C)n1)[C@@H]1C[C@@H]2O[C@]2(C)CCC[C@H](C)[C@H](O[C@@H]2O[C@H](CO)[C@@H](O[C@@H]3O[C@H](CO)[C@@H](O)[C@H](O)[C@H]3O[C@@H]3O[C@H](CO)[C@@H](O)[C@H](O)[C@H]3O)[C@H](O)[C@H]2O)[C@@H](C)C(=O)C(C)(C)[C@@H](O)CC(=O)O1 [1d, epothilone B 7-O-β-D-glucosyl-(1 → 2)-β-D-glucosyl-(1 → 4)-β-D glucoside] | – | – | 184830 ± 3500 (≈ 186 mM) | – | – | – | IC50 ([1]; MTT, 48 h, read-out: IC50 HepG2): 38.2 ± 2.41 µM; IC50 ([2]; MTT, 48 h, read-out: IC50 HL-7702): 42.8 ± 1.15 µM
5 | CC(=O)NC1C(OC2C(C)CCCC3(C)OC3CC(C(C)=Cc3csc(C)n3)OC(=O)CC(O)C(C)(C)C(=O)C2C)OC(CO)C(O)C1O (stereo not shown) [1e] | – | – | – | 19.8 ± 0.88 | 8220 ± 930 (≈ 11.6 mM) | 31.1 ± 3.77 | –
6 | CC(=Cc1csc(C)n1)C1CC2OC2(C)CCCC(C)C(OC2OC(CO)C(O)C(O)C2NC(=O)CN=[N+]=[N-])C(C)C(=O)C(C)(C)C(O)CC(=O)O1 (stereo not shown) [1h] | – | – | – | 30.2 ± 2.91 | 4340 ± 540 (≈ 5.77 mM) | 40.4 ± 1.73 | –
7 | CC(=Cc1csc(C)n1)C1CC2OC2(C)CCCC(C)C(OC2OC(CO)C(O)C(O)C2O)C(C)C(=O)C(C)(C)C(O)CC(=O)O1 (stereo not shown) [1i] | 1.09 ± 0.26 | 9.13 ± 1.02 | 3370 ± 550 (≈ 5.03 mM) | – | – | – | activity higher than that of glucose-modified EpoB (1a) ([1]; HepG2, relative to 1a): ~10 fold; cellular intake rate, lower than that of EpoB (HepG2 cells [4]): 8 fold
8 | C/C(=C\c1csc(C)n1)[C@@H]1C[C@@H]2O[C@]2(C)CCC[C@H](C)[C@H](O)[C@@H](C)C(=O)C(C)(C)[C@@H](O)CC(=O)O1 [EpoB, epothilone B] | 0.00139 ± 0.0003 | 0.00293 ± 0.00053 | – | < 0.002 | – | < 0.003 | Km (BsGT-1 M296A): 147 ± 17 µM; kcat (BsGT-1 M296A): 0.0555 ± 0.003 s⁻¹; Km (BsGT-1 Q318C): 95.9 ± 7.98 µM; kcat (BsGT-1 Q318C): 0.164 ± 0.00367 s⁻¹; Km (BsGT-1 I62A): 43.6 ± 4.16 µM; kcat (BsGT-1 I62A): 0.3975 ± 0.023 s⁻¹; Km (BsGT-1 F231S): 127 ± 12.9 µM; kcat (BsGT-1 F231S): 0.0723 ± 0.0033 s⁻¹; solubility (physchem; thermodynamic from solid, 25°C, read-out: Solubility): 190 ± 30 µg/mL (≈ 0.374 mM)
